Patent US20090306012A1, “THERAPEUTIC PROTOCOLS” (priority 2001, published 2009)

Key:
[1] = In vivo cytotoxicity (I): metabolic stress (daily body weight); set-up: species or system Male F1 mice (C57×CBA)
From the text: All treatment groups were monitored for weight loss on a daily basis. At the end of the study the data were expressed as percentage of original body mass and graphed in this maimer.

[2] = test system: cardiac troponin T; assay: In vivo cardiotoxicity (I): serum levels of cardiac troponin-T (cTnT); set-up: species or system Adult female Wistar rats; details: weekly iv […] Dox, rats
Experimental: (§1) Group 6 received no treatment.
Prior to the commencement of the study, blood (500 μL) was collected from each rat via a tail vein bleed procedure. Blood was collected in 1.5 mL Capiject tube and allowed to clot for a minimum of 30 minutes. […] After pre-bleeds, each experimental animal was injected with respective drug combination or control treatment and 24 hours after administration the rats were tail-bled and processed as described above. Thereafter, animals were injected with drug combinations at weekly intervals for 12 weeks, and blood was collected 24 hours after treatment.

[3] = test system: cardiac myocytes; assay: In vivo cardiotoxicity (I): cardiac damage by electron microscopy; set-up: species or system Adult female Wistar rats; details: chronic exposure, rats
From the text: as §1
(§2) Immediately after animal sacrifice, a traverse section of the intraventricular septum was dissected from the heart and fixed in 2% glutaraldehyde, 2% paraformaldehyde and 4% glucose in phosphate buffer. Standard post-buffering, osmication and processing were followed. Specimens were examined with a Philip's electron microscope and the frequency and severity of cardiac damage in the myocardial cells were graded according to the method according to Billingham et al. (Can. Treat. Rep. 62: 865-872, 1978). In brief, blocks were selected that consisted predominantly of transected cardiac myocytes.

[4] = test system: peripheral blood neutrophils; assay: In vivo cytotoxicity (II): daily blood neutrophil and differential counts; set-up: species or system Male F1 mice (C57×CBA)
Experimental: For each treatment dosage a total of 6 groups (n=8 mice per group) were used. Data from each treatment group were established by staggering results of groups of 6 (counted individually), sampling each group every 4 days so that a daily assessment could be established. Each group was treated as described above, prior to the drug administration. -Throughout this study, blood was collected and analyzed for neutrophil content as outlined in previous examples.
Again, to normalize the data for comparison between treatments, neutropenia was expressed as a percentage of neutrophils on day 0 (before drug administration).

[5] = test system: cardiac myocytes; assay: In vivo cardiotoxicity (II): myocardial pathology by transmission electron microscopy (vacuolated myocytes); set-up: species or system Adult female spontaneously hypertensive rats; details: cumulative Dox 13 mg/kg, 12 weeks
From the text: as §2
(§3) Group 4 received no treatment.
For analyses, tissue processing and assays of antioxidant enzymes and GSH, were carried out as described in Example 2. Analysis of cardiac damage by transmission electron microscopy was also carried out as described in Example 2.
To minimize anatomical variation across treatment groups, samples of the lateral border of the left ventricle were processed for EM analysis.

[6] = test system: reduced glutathione (GSH); assay: In vivo cardiotoxicity (II): tissue reduced glutathione (GSH) level; set-up: species or system Adult female spontaneously hypertensive rats; details: chronic exposure, vs control values
Experimental: For the GSH assay, 0.25 mL of 25% w/v metaphosphoric acid was added to the 1 mL of the original crude homogenate, mixed thoroughly and incubated on ice for 15 minutes. The protein precipitate was pelleted by centrifugation at 10,000 g for 10 minutes at 4° C. The clear supernatant was transferred to a clean tube and either stored at −70° C. for no longer than three days or GSH levels were directly determined. The level of GSH was determined using a fluorometric assay using 0-phthalaldehyde as described by Cohn & Lyle (Anal. Biochem. 14(3): 434-440, 1966).
as §3

[7] = test system: neutrophils; assay: Phase I clinical trial of doxorubicin + HA (HyDox) in advanced cancer: toxicity, neutrophil counts; format: in vivo, patients
From the text: The eligibility criteria, for inclusion in this study, were as follows: Patients must have advanced or metastatic cancer, histologically or cytologically confirmed. Patients were not to have had previous chemotherapy or were to have had no more than one prior chemotherapy regime and were not to have had prior anthracyclines. Patients were to be aged between 18 and 75 years with ambulatory performance status and adequate bone marrow, liver and renal function.
The treatment plan provided that, in the first chemotherapy cycle, patients be randomized to receive Dox alone or Dox plus HA. The converse applied in the second cycle. In the subsequent four cycles, patients received Dox plus HA. This allowed each patient to act as his/her own control in the toxicity analysis in the first two cycles, reducing the possibility of inter-patient variability affecting result interpretation.
Injectable sodium chloride was obtained from Baxter Healthcare, Sydney, Australia, as supplied as a 500 ml infusion bag.
Therefore, the initial dose level was 30 mg/m^2, the next 45 mg/m^2 and the next 60 mg/m^2.

[8] = test system: Glutathione peroxidase; details: chronic exposure, vs control groups
Experimental: One week after the last injection, the rats were killed by decapitation and internal organs were fixed in 10% v/v formalin in phosphate buffered saline. Prior to tissue fixation, portions of the kidney, liver, and skeletal muscle and heart were quickly removed and placed in tubes on ice. The tissue was either used immediately or stored at −80° C. until assayed. Each sample was minced into small pieces, washed vigorously in two changes of ice cold 0.25 M sucrose containing 1 mM EDTA, then washed in 50 mM potassium phosphate buffer pH 7.8 containing 0.1 mM EDTA prior to recording the tissues ‘wet’ weight. The tissue was then resuspended in 2 mL of ice-phosphate-EDTA buffer and homogenized on ice for three 5-second bursts over 5 minutes using an Ultraturrax homogenizer. The fine suspension was made up to a final volume of 4 mL with the phosphate-EDTA buffer and used for the enzyme and GSH assays described below.
From the 4 mL tissue homogenate, 1 mL was transferred to a clean 1.5 mL Eppendorf and stored on ice. […]
SOD activity was determined measuring the Cytochrome c by the method according to McCord & Fridovich (J. Biol. Chem. 244(22): 6056-6063, 1969). GP activity was assessed by an indirect coupled assay (Paglia & Valentine, J. Lab. Clin. Med. 70(1): 158-169, 1967). […]
For control purposes, antioxidant loading from hepatic, renal and skeletal muscle extracts was also determined.

[9] = In vivo cytotoxicity (I): general toxicity (survival); details: 24 mg/kg Dox, single iv bolus, 14 days
Experimental: Male F1 mice (C57×CBA; 11-13 weeks old), used for in vivo studies, were obtained from The Animal Central Division (Monash University, Victoria, Australia). The mice were distributed at random into each treatment group (6 per treatment group) and allowed to acclimatize for 2-3 weeks before commencing the study. […] Before a treatment group was started, blood (200 μL) from each experimental animal was collected by retroorbital sinus bleed and immediately transferred to tube containing EDTA, gently flick mixed and stored on ice until analysis. This was taken as day 0, after which the mice were given a single bolus intravenous injection via tail vein with corresponding control, drug, or HA/drug combinations. The mice were then sequentially bled on days 1, 4, 7, 10 and 14 by the aforementioned method. All blood samples were analyzed for white blood cell composition in an Adiva 120 Differential Coulter Counter (Bayer Diagnostics, USA). Throughout the duration of the study, mouse mass, food intake and general activity levels were recorded on a daily basis. On day 14, mice were sacrificed by cervical dislocation and the heart, lungs, liver, spleen, kidneys, stomach, intestines and testicles removed and immediately fixed in 10% v/v formalin in phosphate buffered saline.

Compound: COc1cccc2c1C(=O)c1c(O)c3c(c(O)c1C2=O)C[C@@](O)(C(=O)CO)C[C@@H]3O[C@H]1C[C@H](N)[C@H](O)[C@H](C)O1 [Dox, doxorubicin]
- Maximum weight loss, % of original body mass ([1]; 9 mg/kg Dox): ~−10%
- Original body mass lost ([1]; 12 mg/kg Dox, by day 11): ~13%
- Original weight lost ([1]; 24 mg/kg dosage group, by day 7): ~25%
- Cumulative dose of Dox at which cardiotoxicity (serum troponin T release) begins [2]: 9 mg/kg
- Appearance of myocytes in the heart (electron micrographs) [3]: vacuolated myocytes
- Duration of nadir neutropenia ([4]; 12 mg/kg): 2 days
- Onset of nadir neutropenia ([4]; 12 mg/kg): 4 days
- Duration of nadir neutropenia before recovery ([4]; 16 mg/kg): > 48 h
- Myocyte vacuolation compared with the HyDox group [5]: almost two-three-fold greater
- Level of hepatic GSH [6]: remained unchanged
- Neutrophils as % of Day 1 ([7]; Patient 1, Cycle 2, 30 mg/m2, day 1): 100%
- Neutrophils as % of Day 1 ([7]; Patient 1, Cycle 2, 30 mg/m2, day 6): 100%
- Neutrophils as % of Day 1 ([7]; Patient 1, Cycle 2, 30 mg/m2, day 8): 109%
- Neutrophils as % of Day 1 ([7]; Patient 1, Cycle 2, 30 mg/m2, day 10): 109%
- Neutrophils as % of Day 1 ([7]; Patient 1, Cycle 2, 30 mg/m2, day 13): 83%
- Neutrophils as % of Day 1 ([7]; Patient 1, Cycle 2, 30 mg/m2, day 15): 57%
- Neutrophils as % of Day 1 ([7]; Patient 1, Cycle 2, 30 mg/m2, day 20): 57%
- Neutrophils as % of Day 1 ([7]; Patient 1, Cycle 2, 30 mg/m2, day 21): 74%
- Neutrophils as % of Day 1 ([7]; Patient 1, Cycle 3, 30 mg/m2, day 1): 100%
- Neutrophils as % of Day 1 ([7]; Patient 2, Cycle 1, 30 mg/m2, day 1): 100%
- Neutrophils as % of Day 1 ([7]; Patient 2, Cycle 1, 30 mg/m2, day 4): 120%
- Neutrophils as % of Day 1 ([7]; Patient 2, Cycle 1, 30 mg/m2, day 8): 132%
- Neutrophils as % of Day 1 ([7]; Patient 2, Cycle 1, 30 mg/m2, day 10): 78%
- Neutrophils as % of Day 1 ([7]; Patient 2, Cycle 1, 30 mg/m2, day 15): 54%
- Neutrophils as % of Day 1 ([7]; Patient 2, Cycle 1, 30 mg/m2, day 17): 40%
- Neutrophils as % of Day 1 ([7]; Patient 2, Cycle 1, 30 mg/m2, day 21): 86%
- Neutrophils as % of Day 1 ([7]; Patient 2, Cycle 3, 30 mg/m2, day 1): 100%
- Neutrophils as % of Day 1 ([7]; Patient 5, Cycle 1, 30 mg/m2, day 1): 100%
- Neutrophils as % of Day 1 ([7]; Patient 5, Cycle 1, 30 mg/m2, day 4): 78%
- Neutrophils as % of Day 1 ([7]; Patient 5, Cycle 1, 30 mg/m2, day 7): 70%
- Neutrophils as % of Day 1 ([7]; Patient 5, Cycle 1, 30 mg/m2, day 9): 73%
- Neutrophils as % of Day 1 ([7]; Patient 5, Cycle 1, 30 mg/m2, day 12): 49%
- Neutrophils as % of Day 1 ([7]; Patient 5, Cycle 1, 30 mg/m2, day 14): 38%
- Neutrophils as % of Day 1 ([7]; Patient 5, Cycle 1, 30 mg/m2, day 16): 32%
- Neutrophils as % of Day 1 ([7]; Patient 5, Cycle 1, 30 mg/m2, day 19): 38%
- Neutrophils as % of Day 1 ([7]; Patient 5, Cycle 1, 30 mg/m2, day 21): 59%
- Neutrophils as % of Day 1 ([7]; Patient 5, Cycle 3, 30 mg/m2, day 1): 100%
- Neutrophils as % of Day 1 ([7]; Patient 7, Cycle 1, 45 mg/m2, day 1): 100%
- Neutrophils as % of Day 1 ([7]; Patient 7, Cycle 1, 45 mg/m2, day 4): 46%
- Neutrophils as % of Day 1 ([7]; Patient 7, Cycle 1, 45 mg/m2, day 8): 56%
- Neutrophils as % of Day 1 ([7]; Patient 7, Cycle 1, 45 mg/m2, day 10): 41%
- Neutrophils as % of Day 1 ([7]; Patient 7, Cycle 1, 45 mg/m2, day 12): 35%
- Neutrophils as % of Day 1 ([7]; Patient 7, Cycle 1, 45 mg/m2, day 15): 19%
- Neutrophils as % of Day 1 ([7]; Patient 7, Cycle 1, 45 mg/m2, day 17): 14%
- Neutrophils as % of Day 1 ([7]; Patient 7, Cycle 1, 45 mg/m2, day 19): 21%
- Neutrophils as % of Day 1 ([7]; Patient 7, Cycle 3, 45 mg/m2, day 1): 100%
- Neutrophils as % of Day 1 ([7]; Patient 8, Cycle 2, 45 mg/m2, day 1): 100%
- Neutrophils as % of Day 1 ([7]; Patient 8, Cycle 2, 45 mg/m2, day 4): 84%
- Neutrophils as % of Day 1 ([7]; Patient 8, Cycle 2, 45 mg/m2, day 8): 85%
- Neutrophils as % of Day 1 ([7]; Patient 8, Cycle 2, 45 mg/m2, day 10): 39%
- Neutrophils as % of Day 1 ([7]; Patient 8, Cycle 2, 45 mg/m2, day 12): 81%
- Neutrophils as % of Day 1 ([7]; Patient 8, Cycle 2, 45 mg/m2, day 15): 62%
- Neutrophils as % of Day 1 ([7]; Patient 10, Cycle 1, 60 mg/m2, day 1): 100%
- Neutrophils as % of Day 1 ([7]; Patient 10, Cycle 1, 60 mg/m2, day 4): 93%
- Neutrophils as % of Day 1 ([7]; Patient 10, Cycle 1, 60 mg/m2, day 6): 63%
- Neutrophils as % of Day 1 ([7]; Patient 10, Cycle 1, 60 mg/m2, day 8): 33%
- Neutrophils as % of Day 1 ([7]; Patient 10, Cycle 1, 60 mg/m2, day 10): 4%
- Neutrophils as % of Day 1 ([7]; Patient 10, Cycle 1, 60 mg/m2, day 13): 3%
- Neutrophils as % of Day 1 ([7]; Patient 10, Cycle 1, 60 mg/m2, day 17): 20%
- Neutrophils as % of Day 1 ([7]; Patient 10, Cycle 1, 60 mg/m2, day 20): 47%
- Neutrophils as % of Day 1 ([7]; Patient 12, Cycle 1, 60 mg/m2, day 1): 100%
- Neutrophils as % of Day 1 ([7]; Patient 12, Cycle 1, 60 mg/m2, day 4): 124%
- Neutrophils as % of Day 1 ([7]; Patient 12, Cycle 1, 60 mg/m2, day 7): 95%
- Cardiac glutathione peroxidase levels [8]: equally increased
- Mice that survived until the end of the study [9]: 2 mice
